Assay results published in patent US20200363414A1, “Neoantigen Identification for T-Cell Therapy” (Gritstone Oncology, Inc., priority 2018, published 2020).
Where no end group is shown, it is not given here.

test system: neoantigen-reactive T-cells (patient PBMCs); test: IFN-gamma ELISpot of in vitro expanded (IVS) NSCLC patient PBMCs; type: cell-based, human; conditions: IFN-gamma ELISpot after 14 day IVS culture of NSCLC patient PBMCs
Method: To focus the analysis on likely CD8 responses, the prioritized peptides were synthesized as 8-11 mer minimal epitopes (Methods), and then peripheral blood mononuclear cells (PBMCs) were cultured with the synthesized peptides in short in vitro stimulation (IVS) cultures to expand neoantigen-reactive T-cells (Supplementary Table 3). After two weeks the presence of antigen-specific T-cells was assessed using IFN-gamma ELISpot against the prioritized neoepitopes. In seven patients for whom sufficient PBMCs were available, separate experiments were also performed to fully or partially deconvolve the specific antigens recognized.
For each patient, predicted neoantigens were combined into 2 pools of 10 peptides each according to model ranking and any sequence homologies (homologous peptides were separated into different pools). Then, for each patient, the in vitro expanded PBMCs for the patient were stimulated with the 2 patient-specific neoantigen peptide pools in IFN-gamma ELISpot. Data in FIG. 15A are presented as spot forming units (SFU) per 105 plated cells with background (corresponding DMSO negative controls) subtracted.
Cells were seeded at 2×10^6 cells/well and fed every 2-3 days by replacing 2/3 of the culture media.
Detection of IFNγ-producing T-cells was performed by ELISpot assay^142. Briefly, PBMCs (ex vivo or post in vitro expansion) were harvested, washed in serum free RPMI (VWR International) and cultured in the presence of controls or cognate peptides in OpTmizer T-cell Expansion Basal Medium (ex vivo) or in ImmunoCult™-XF T-cell Expansion Medium (expanded cultures) in ELISpot Multiscreen plates (EMD Millipore) coated with anti-human IFNγ capture antibody (Mabtech, Cincinatti, Ohio, USA). Following 18 h incubation in a 5% CO2, 37° C., humidified incubator, cells were removed from the plate and membrane-bound IFNγ was detected using anti-human IFNγ detection antibody (Mabtech), Vectastain Avidin peroxidase complex (Vector Labs, Burlingame, Calif., USA) and AEC Substrate (BD Biosciences, San Jose, Calif., USA). […] Data are presented as spot forming units (SFU) per plated number of cells.

Row | Sequence | T-cell recognition of individual neoantigen peptide
1 | DENITTIQF | peptide-specific T-cell response was deconvolved
2 | DTVEYPYTSF | peptide-specific T-cell response was deconvolved
3 | EVADAATLTM | peptide-specific T-cell response was deconvolved
4 | GTKKDVDVLK | recognized by CD8 T-cells
5 | QDVSVQVER | peptide-specific T-cell response was deconvolved
